From US20220249590A1, “EFFICACY OF GARLIC THERAPY IN CONTROLLING INFLAMMATORY CYTOKINES AND CARTILAGE DEGRADATION IN KNEE OSTEOARTHRITIS AND IMPROVING QUALITY OF LIFE” (priority 2021, published 2022)

What was measured:
[1] = test system: knee osteoarthritis patients; experiment: Study II: garlic versus glucosamine sulphate, clinical manifestations; type: in vivo, human
Protocol: In the second study, I had compared the effect of garlic versus glucosamine on cartilage degeneration in knee osteoarthritis patients. I have chosen glucosamine sulfate to be the comparing drug due to its well known chondroprotective properties and it has been in the market for a while to control the symptoms of knee osteoarthritis.
(§1) Garlic group receive 900 mg of garlic capsules daily for 8 weeks. The glucosamine group received 1500 mg glucosamine sulfate daily for 8 weeks. As regard baseline affection of knee in both groups. The garlic group has bilateral knee OA in 100% of patients and significant knee deformity compared to glucosamine group who were having only Bilateral knee affection in 70% of patients.

MMP13 = experiment: Study II: level of MMP13; type: in vivo, human; details: garlic capsules 900 mg daily or glucosamine sulfate 1500 mg daily, 8 weeks; no difference between the groups
Protocol: as §1

collagenase = experiment: Study II: level of collagenase; type: in vivo, human; details: garlic capsules 900 mg daily or glucosamine sulfate 1500 mg daily, 8 weeks; no difference between the groups
Protocol: as §1

glutathione peroxidase [2] = experiment: Study II: level of glutathione peroxidase; type: in vivo, human; details: garlic capsules 900 mg daily or glucosamine sulfate 1500 mg daily, 8 weeks; no difference between the groups
Protocol: as §1

mice knee osteoarthritis = details: after intake of diet rich in selenium; cited from earlier work
glutathione peroxidase [3] = details: mice, after intake of diet rich in selenium; cited from earlier work
adjuvant arthritis = adjuvant arthritis in rats; cited from earlier work
lupus mice = details: cited from earlier work
[4] = test system: rheumatoid arthritis patients; details: selenium intake; cited from earlier work

Question: Which results are given for `N[C@H]1C(O)O[C@H](CO)[C@@H](O)[C@@H]1O.O=S(=O)(O)O` (some centres unmarked) [glucosamine sulfate]?
Answer: body mass index, mean percent change ([1]; end of study, glucosamine group vs garlic group): higher mean percent change than garlic group; pain score ([1]; garlic capsules 900 mg daily or glucosamine sulfate 1500 mg daily, 8 weeks): significantly improved in both groups with no difference between groups; body mass index ([1]; garlic capsules 900 mg daily or glucosamine sulfate 1500 mg daily, 8 weeks, end of study vs baseline): did not significantly change; level of MMP13 (MMP13): significant reduction; level of collagenase (collagenase): significant reduction; level of glutathione peroxidase (glutathione peroxidase [2]): significant reduction

Question: For `[Se]` [selenium], which mice knee osteoarthritis (mice knee osteoarthritis) is on record?
Answer: significant reduction

Question: And the “expression of glutathione peroxidase in synovium” value (glutathione peroxidase [3])?
Answer: increased expression

Question: And the indices of inflammation (adjuvant arthritis)?
Answer: improved indices of inflammation

Question: And the indices of inflammation (lupus mice)?
Answer: improved indices of inflammation

Question: What about the “pain, swollen and tender joints numbers” value [4] of the same molecule?
Answer: reduction
